Experimental data as given in patent US20230127046A1, “G9a INHIBITOR” (RIKEN, priority 2019, published 2023).
pIC50: −log10 of the molar value. Read-outs that look alike come from different tables or passages of the source.

Biological target: T1, recombinant human G9a protein (Homo sapiens, UniProt Q96KQ7)
T1 construct: purchased BPS Bioscience Inc. #51001
T1 sequence (Q96KQ7 785-1210 limits assumed): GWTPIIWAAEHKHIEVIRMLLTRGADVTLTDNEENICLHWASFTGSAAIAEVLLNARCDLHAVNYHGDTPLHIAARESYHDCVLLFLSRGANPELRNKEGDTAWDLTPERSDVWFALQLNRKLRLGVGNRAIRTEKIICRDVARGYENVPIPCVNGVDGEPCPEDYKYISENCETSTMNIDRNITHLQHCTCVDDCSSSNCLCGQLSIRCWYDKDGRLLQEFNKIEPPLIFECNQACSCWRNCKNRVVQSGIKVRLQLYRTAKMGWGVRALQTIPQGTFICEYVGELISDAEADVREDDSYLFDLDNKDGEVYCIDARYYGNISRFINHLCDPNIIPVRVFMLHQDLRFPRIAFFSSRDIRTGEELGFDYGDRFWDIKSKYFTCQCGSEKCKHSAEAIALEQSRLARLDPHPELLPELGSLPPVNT
Test: G9a inhibitory activity test (ALPHA)
Assay type: biochemical
Procedure: The G9a inhibitory activity of each compound was evaluated by measuring the enzymatic activity of G9a by amplified luminescence proximity homogeneous assay (ALPHA). First, 7.5 μL of a dilution of recombinant human G9a protein (BPS Bioscience Inc., #51001) diluted to 0.05 to 0.1 nM with a Tris buffer solution (50 mM Tris-HCl [pH 9.0], 50 mM NaCl, 0.01% Tween-20, 1 mM DTT), and 0.5 μL of the test compound were added to each well of a 384-well microplate (AlphaPlate-384 Shallow Well, PerkinElmer, Inc., #6008359), mixed by vortex, and incubated at room temperature for 10 minutes. 500 nM biotinylated histone H3 peptide (1-21) (AnaSpec Inc., #61702) and 150 μM SAM (Sigma-Aldrich Co. LLC, #A7007) were mixed at 1:1 in advance, and 2 μL of the mixture was added to each well, mixed by vortex, and then incubated at room temperature for 1 hour. AlphaLISA anti-H3K9me2 acceptor beads (PerkinElmer, Inc., #AL117C) and AlphaScreen streptavidin donor beads (PerkinElmer, Inc., #6760002B) were each diluted with an epigenetic buffer (PerkinElmer, Inc., AlphaLISA Epigenetics Buffer Kit #AL008C) to a final concentration of […] after addition. These dilutions were added to the reaction solution in the dark and incubated at room temperature for 1 hour in the dark. Then, measurement was performed using the EnSpire Alpha plate reader (PerkinElmer, Inc., Waltham, Mass., USA). The G9a inhibitory activity of the test compound was calculated as a compound concentration necessary for suppressing G9a enzymatic activity by 50% (IC50 value), by determining the percent inhibition of the compound when the value of a control without the addition of the compound was defined as 0% and the value of a control without the addition of the enzyme was defined as 100%.

[1] = read-out: Inhibitory activity (G9a IC50)
[2] = biotinylated histone H3 peptide (1-21), SAM, read-out: Inhibitory activity (G9a IC50 value)

With `Cc1c(C(=O)N[C@@H](CCC2CC2)C(=O)N(C)[C@H](C)c2ccccc2)[nH]c2c1C(=O)CC(C)(C)C2` [Example 13-3] the pIC50 [1] was at most 6.70.
For `CCc1cc(Br)ncc1NC(=O)C(CCC1CC1)NC(=O)c1[nH]c2c(c1C)C(=O)CC(C)(C)C2` (stereo not drawn) [Example 6-15], the pIC50 [1] was over 7.30.
For `CCCCC(NC(=O)c1[nH]c2c(c1C)C(=O)CC(C)(C)C2)C(=O)NC1CCN(CCCN2CCCC2)CC1` (stereo not drawn) [Example 1-56], the pIC50 [2] was at most 6.70.
Work on `Cc1c(C(=O)NC(CCC2CC2)C(=O)Nc2ccc(CCN(C)C)cc2)[nH]c2c1C(=O)CC(C)(C)C2` (stereo not drawn) [Example 1-139] yielded a pIC50 [1] of over 7.30.
`CCc1c(C(=O)NC(CCC2CC2)C(=O)Nc2ccc(C)nc2)[nH]c2c1C(=O)CC(C)(C)C2` (stereo not drawn) [Example 6-11] showed a pIC50 [1] of 6.70 to 7.30.
Work on `O=C(NC(CCC1CC1)C(=O)Nc1ccc(C(F)(F)F)nc1)c1ccc(Nc2ccncc2)cc1` (stereo not drawn) [Example 6-81] yielded a pIC50 [1] of over 7.30.
With `Cc1cc(Nc2ccncc2)ccc1C(=O)NC(CCC1CC1)C(=O)Nc1ccc(C#N)nc1` (stereo not drawn) [Example 6-84] the pIC50 [1] was over 7.30.
`CCCC[C@H](NC(=O)c1[nH]c2c(c1C)C(=O)CC1(CCOCC1)C2)C(=O)N[C@@H](C)c1ccccc1` [Example 6-44] showed a pIC50 [1] of at most 6.70.
`CCOc1ccc(NC(=O)C(CCC2CC2)NC(=O)c2ccc(Nc3ccncc3)cc2)cn1` (stereo not drawn) [Example 6-80] was tested, and the pIC50 [1] was over 7.30.
Work on `CCCCC(NC(=O)c1[nH]c2c(c1C)C(=O)CC(C)(C)C2)C(=O)Nc1cccc(C)c1OC` (stereo not drawn) [Example 1-28] yielded a pIC50 [2] of at most 6.70.
Work on `CCCCC(NC(=O)c1[nH]c2c(c1C)C(=O)CC(C)(C)C2)C(=O)Nc1ccc(OC2CCNCC2)nc1` (stereo not drawn) [Example 26-4] yielded a pIC50 [1] of over 7.30.
`CCCC[C@H](NC(=O)c1[nH]c2c(c1C)C(=O)CC(C)(C)C2)C(=O)NCc1ccc(N2CCN(CC(C)C)CC2)cc1` [Example 22-1] gave a pIC50 [1] of at most 6.70.
`CCCCC(NC(=O)Cc1ccccc1)C(=O)Nc1ccc(OC2COC2)nc1` (stereo not drawn) [Example 10, N-[6-(oxetan-3-yloxy)pyridin-3-yl]-2-[(2-phenylacetyl)amino]hexaneamide] was tested, and the pIC50 [1] was 6.70 to 7.30.
`CCCC[C@H](NC(=O)c1[nH]c2c(c1CC)C(=O)CC(C)(C)C2)C(=O)N[C@@H](CC)c1ccccc1` [Example 6-39] showed a pIC50 [1] of 6.70 to 7.30.
For `CCCCC(NC(=O)c1[nH]c2c(c1C)C(=O)CC(C)(C)C2)C(=O)NCc1ccc(N2CCNCC2)cc1` (stereo not drawn) [Example 26-7], the pIC50 [1] was over 7.30.
`CCCCC(NC(=O)c1[nH]c2ccc(OCC)cc2c1C)C(=O)Nc1ccc(OC2CCN(C)CC2)nc1` (stereo not drawn) [Example 6-95] gave a pIC50 [1] of at most 6.70.
`CCCC[C@H](NC(=O)c1[nH]c2c(c1C)C(=O)CC(C)(C)C2)c1nc2ccc(OCCN3CCCCC3)cc2[nH]1` [Example 37-1, (S)-3,6,6-trimethyl-4-oxo-N-(1-(6-(2-(piperidin-1-yl)ethoxy)-1H-benzo[d]imidazol-2-yl)pentyl)-4,5,6,7-tetrahydro-1H-indole-2-carboxamide] was tested, and the pIC50 [1] was at most 6.70.
Molecule `COc1ccc(NC(=O)C(CCC2CC2)NC(=O)c2ccc(Nc3ccncc3)cn2)cn1` (stereo not drawn) [Example 6-76] has a pIC50 [1] of at most 6.70.
In the case of `Cc1c(C(=O)NC(CCC(C)C)C(=O)Nc2ccccc2)[nH]c2c1C(=O)CC(C)(C)C2` (stereo not drawn) [Example 6-25], the pIC50 [1] was at most 6.70.
`CCCC[C@@H](NC(=O)c1[nH]c2c(c1C)C(=O)CC(C)(C)C2)C(=O)N[C@@H](C)c1ccccc1` [Example 2-2, 3,6,6-trimethyl-4-oxo-N-((R)-1-oxo-1-(((S)-1-phenylethyl)amino)hexan-2-yl)-4,5,6,7-tetrahydro-1H-indol-2-carboxamide] gave a pIC50 [1] of at most 6.70.
For `CCCCC(NC(=O)Cc1ccccc1C)C(=O)Nc1ccc(OC2CCN(C)CC2)nc1` (stereo not drawn) [Example 11-7], the pIC50 [1] was at most 6.70.
`COc1ccc(NC(=O)C(CCC2CC2)NC(=O)c2ccc(Nc3ccncc3)cc2OC)cn1` (stereo not drawn) [Example 6-79] showed a pIC50 [1] of over 7.30.
With `CCCC[C@H](NC(=O)c1[nH]c2c(c1C)C(=O)CC(C)(C)C2)c1nc2ccc(OC3CCN(C)CC3)cc2[nH]1` [Example 34-4] the pIC50 [1] was at most 6.70.
In the case of `CCCCC(NC(=O)c1[nH]c2c(c1C)C(=O)CC(C)(C)C2)C(=O)Nc1ccc(F)cc1` (stereo not drawn) [Example 1-26], the pIC50 [2] was at most 6.70.
